According to US20250214978A1, “AT2R AGONIST” (WUHAN HUMANWELL INNOVATIVE DRUG RESEARCH AND DEVELOPMENT …, priority 2022, published 2025):

Target: AT2R (Homo sapiens (Human), UniProt P50052)
Assay: Binding assay of compounds to AT2R (Tag-lite HTRF ligand binding kit)
Conditions: 1 hour incubation at room temperature
Experimental: The assay was performed in accordance with the instruction manual of Angiotensin AT2 Receptor Ligand Binding Assay Kit (#C1TT1AT2, Cisbio). First, a compound stock solution (10 mM) was diluted in a gradient at a 5× dilution ratio (including 10 concentrations, each with two replicates). 160 nL of compounds at different concentrations was added to a 384-well plate. 40 μL of 1×TLB was added to each well, and the mixture was shaken at room temperature for 15 minutes. 15 mL centrifuge tube added with 5 mL of 1×TLB was prepared in advance. The frozen labeled cells were thawed in a water bath at 37° C. (for 1 to 2 minutes), and the thawed cells were quickly transferred to the above 15 mL centrifuge tube. The mixture was mixed well and centrifuged at 1,000 g at room temperature for 5 minutes. The supernatant was removed, and the cells were resuspended by adding 2.7 mL 1×TLB. A new 384-well plate was taken, and 10 μL of mixed cells were added into the corresponding wells according to the assay design. 5 μL of 4× compound solution and 5 μL of 4× Tag-lite red fluorescent labeled ligand were added to each well. After incubation at room temperature for 1 hour, data were read using EnVision with an HTRF mode. The excitation light intensities at 665 nM and 615 nM in each well were read respectively, and the ratio was calculated (Ratio=A665nMIB615 nM). The IC50 value was calculated by means of GraphPad Prism8 software, where X represents logarithmic value of compound concentration; and Y represents ratio of A665 nM/B615 nM.

AT2R, sequence (P50052 whole entry): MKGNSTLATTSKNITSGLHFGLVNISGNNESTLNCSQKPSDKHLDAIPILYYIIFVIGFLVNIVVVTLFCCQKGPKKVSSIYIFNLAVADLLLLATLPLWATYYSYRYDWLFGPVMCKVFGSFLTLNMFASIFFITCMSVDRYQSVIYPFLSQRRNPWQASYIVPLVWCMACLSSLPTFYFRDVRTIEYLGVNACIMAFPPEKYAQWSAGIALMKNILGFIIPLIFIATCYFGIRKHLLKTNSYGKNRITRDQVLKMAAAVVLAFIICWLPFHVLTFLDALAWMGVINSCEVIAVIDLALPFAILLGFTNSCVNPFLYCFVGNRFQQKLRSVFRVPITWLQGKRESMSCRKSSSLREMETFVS

SMILES | IC50 [nM]
Cc1nccn1Cc1ccc(-c2cc(CC(C)C)sc2S(=O)(=O)NC(=O)NCCC(F)(F)F)c(C#N)c1 [Compound I-18, 3-(2-cyano-4-((2-methyl-1H-imidazol-1-yl)methyl)phenyl)-5-isobutyl-N-((3,3,3-trifluoropropyl)carbamoyl)thiophene-2-sulfonamide] | 1.63
CCCCOC(=O)NS(=O)(=O)c1sc(CC(C)C)cc1-c1ccc(Cn2ccnc2)cc1C#N [Compound I-3, Butyl ((3-(4-((1H-imidazol-1-yl)methyl)-2-cyanophenyl)-5-isobutylthiophen-2-yl)sulfonyl)carbamate] | 3.95
CCCCOC(=O)NS(=O)(=O)c1sc(CC(C)C)cc1-c1ccc(Cn2ccnc2)cc1C [Compound I-1, Butyl ((3-(4-((1H-imidazol-1-yl)methyl)-2-methylphenyl)-5-isobutylthiophen-2-yl)sulfonyl)carbamate] | 4.28
CCCCOC(=O)NS(=O)(=O)c1sc(CC(C)C)cc1-c1ccc(C(C)n2ccnc2)cc1 (stereo not shown) [Compound I-7, Butyl ((3-(4-(1-(1H-imidazol-1-yl)ethyl)phenyl)-5-isobutylthiophen-2-yl)sulfonyl)carbamate] | 3.8
Cc1cc(-c2cc(CC(C)C)sc2S(=O)(=O)NC(=O)NCCO)ccc1Cn1ccnc1C [Compound I-23, N-((2-hydroxyethyl)carbamoyl)-5-isobutyl-3-(3-methyl-4-((2-methyl-1H-imidazol-1-yl)methyl)phenyl)thiophene-2-sulfonamide] | 11.3
COC(=O)NS(=O)(=O)c1sc(CC(C)C)cc1-c1ccc(Cn2ccnc2C(C)(C)C)cc1C#N [Compound I-17, Methyl (3-(4-((2-(tert-butyl)-1H-imidazol-1-yl)methyl)-2-cyanophenyl)-5-isobutylthiophen-2-yl)sulfonylcarbamate] | 2.09
CCCCOC(=O)NS(=O)(=O)c1sc(CC(C)C)cc1-c1ccc(Cn2ccnc2)c(C#N)c1 [Compound I-4, Butyl ((3-(4-((1H-imidazol-1-yl)methyl)-3-cyanophenyl)-5-isobutylthiophen-2-yl)sulfonyl)carbamate] | 3.54
CCNC(=O)NS(=O)(=O)c1sc(CC(C)C)cc1-c1ccc(Cn2ccnc2C)c(C)c1 [Compound I-22, N-(ethylcarbamoyl)-5-isobutyl-3-(3-methyl-4-((2-methyl-1H-imidazol-1-yl)methyl)phenyl)thiophene-2-sulfonamide] | 7.28
CCCCOC(=O)NS(=O)(=O)c1sc(CC(C)C)c(C)c1-c1ccc(Cn2ccnc2)cc1 [Compound I-8, Butyl ((3-(4-((1H-imidazol-1-yl)methyl)phenyl)-5-isobutyl-4-methylthiophen-2-yl)sulfonyl)carbamate] | 4.4
CCCCOC(=O)NS(=O)(=O)c1sc(CC(C)C)cc1-c1ccc(Cn2ccnc2)nc1 [Compound I-6, Butyl ((3-(6-((1H-imidazol-1-yl)methyl)pyridin-3-yl)-5-isobutylthiophen-2-yl)sulfonyl)carbamate] | 11.4
Cc1cc(Cn2ccnc2C)ccc1-c1cc(CC(C)C)sc1S(=O)(=O)NC(=O)NCc1ccccn1 [Compound I-19, 5-isobutyl-3-(2-methyl-4-((2-methyl-1H-imidazol-1-yl)methyl)phenyl)-N-((pyridin-2-ylmethyl)carbamoyl)thiophene-2-sulfonamide] | 1
COC(=O)NS(=O)(=O)c1sc(CC(C)C)cc1-c1ccc(Cn2ccnc2C)c(C)c1 [Compound I-21, Methyl ((5-isobutyl-3-(3-methyl-4-((2-methyl-1H-imidazol-1-yl)methyl)phenyl)thiophen-2-yl)sulfonyl)carbamate] | 2.73
COC(=O)NS(=O)(=O)c1sc(CC(C)C)cc1-c1ccc(Cn2ccnc2C)cc1C#N [Compound I-10, Methyl (3-(2-cyano-4-((2-methyl-1H-imidazol-1-yl)methyl)phenyl)-5-isobutylthiophen-2-yl)sulfonylcarbamate] | 2.15
CCCCOC(=O)NS(=O)(=O)c1sc(CC(C)C)cc1-c1ccc(Cn2ccnc2)c(C)c1 [Compound I-2, Butyl ((3-(4-((1H-imidazol-1-yl)methyl)-3-methylphenyl)-5-isobutylthiophen-2-yl)sulfonyl)carbamate] | 3.32

The next lines start with the values.

IC50 [nM] | SMILES
1.32 | CCc1nccn1Cc1ccc(-c2c(S(=O)(=O)NC(=O)OC)sc(CC(C)C)c2C)cc1 [Compound I-32, Methyl ((3-(4-((2-ethyl-1H-imidazol-1-yl)methyl)phenyl)-5-isobutyl-4-methylthiophen-2-yl)sulfonyl)carbamate]
3.35 | COC(=O)NS(=O)(=O)c1sc(CC(C)C)cc1-c1ccc(Cn2ccnc2C(C)C)c(C#N)c1 [Compound I-27, Methyl ((3-(3-cyano-4-((2-isopropyl-1H-imidazol-1-yl)methyl)phenyl)-5-isobutylthiophen-2-yl)sulfonyl)carbamate]
3.4 | COC(=O)NS(=O)(=O)c1sc(CC(C)C)c(C)c1-c1ccc(Cn2ccnc2C)c(C)c1 [Compound I-35, Methyl ((5-isobutyl-4-methyl-3-(3-methyl-4-((2-methyl-1H-imidazol-1-yl)methyl)phenyl)thiophen-2-yl)sulfonyl)carbamate]
4.5 | CCCOC(=O)NS(=O)(=O)c1sc(CC(C)C)c(C)c1-c1ccc(Cn2ccnc2C)cc1 [Compound I-29, Propyl ((5-isobutyl-4-methyl-3-(4-((2-methyl-1H-imidazol-1-yl)methyl)phenyl)thiophen-2-yl)sulfonyl)carbamate]
1.51 | COC(=O)NS(=O)(=O)c1sc(CC(C)C)cc1-c1ccc(Cn2ccnc2C)c(C#N)c1 [Compound I-24, Methyl ((3-(3-cyano-4-((2-methyl-1H-imidazol-1-yl)methyl)phenyl)-5-isobutylthiophen-2-yl)sulfonyl)carbamate]
1.61 | COC(=O)NS(=O)(=O)c1sc(CC(C)C)c(C)c1-c1ccc(Cn2ccnc2C(C)C)cc1 [Compound I-33, Methyl ((5-isobutyl-3-(4-((2-isopropyl-1H-imidazol-1-yl)methyl)phenyl)-4-methylthiophen-2-yl)sulfonyl)carbamate]
4.86 | CCCCOC(=O)NS(=O)(=O)c1sc(CC(C)C)c(C)c1-c1ccc(Cn2ccnc2C)cc1 [Compound I-31, Butyl ((5-isobutyl-4-methyl-3-(4-((2-methyl-1H-imidazol-1-yl)methyl)phenyl)thiophen-2-yl)sulfonyl)carbamate]
5.65 | COC(=O)NS(=O)(=O)c1sc(CC(C)C)cc1-c1ccc(Cn2ccnc2C(C)(C)C)cc1C [Compound I-25, Methyl ((3-(4-((2-(tert-butyl)-1H-imidazol-1-yl)methyl)-2-methylphenyl)-5-isobutylthiophen-2-yl)sulfonyl)carbamate]
4.06 | CCOC(=O)NS(=O)(=O)c1sc(CC(C)C)c(C)c1-c1ccc(Cn2ccnc2C)cc1 [Compound I-28, Ethyl ((5-isobutyl-4-methyl-3-(4-((2-methyl-1H-imidazol-1-yl)methyl)phenyl)thiophen-2-yl)sulfonyl)carbamate]
2.39 | CCCCOC(=O)NS(=O)(=O)c1sc(CC(C)C)cc1-c1ccc(Cn2ccnc2C)cc1C [Compound I-36, Butyl ((5-isobutyl-3-(2-methyl-4-((2-methyl-1H-imidazol-1-yl)methyl)phenyl)thiophen-2-yl)sulfonyl)carbamate]
3.76 | COC(=O)NS(=O)(=O)c1sc(CC(C)C)c(C)c1-c1ccc(Cn2ccnc2C(C)(C)C)cc1 [Compound I-26, Methyl ((3-(4-((2-(tert-butyl)-1H-imidazol-1-yl)methyl)phenyl)-5-isobutyl-4-methylthiophen-2-yl)sulfonyl)carbamate]
